Experiments:
Raf-1, Akt [1] = experiment: pharmacodynamic analysis of MDA-MB-468 tumors (Western blot); type: in vivo, mice; details: Mus musculus, MDA-MB-468, 24 h
359 kinases = experiment: scanMAX kinase screen (Ambit); type: binding; details: 10 μM
in vivo = details: mouse
HSP90 = experiment: 131I-PU-H71 saturation binding in intact cancer cells; type: cell-based
From the text: The solutions were shaken in an orbital shaker and after 1 hr the cells were isolated and washed with ice cold Tris-buffered saline using a Brandel cell harvester. […] To calculate the percentage of HSP90, cellular HSP90 expression was quantified by using standard curves created of recombinant HSP90 purified from HeLa cells (Stressgen#ADI-SPP-770).

caspase-3,7 = experiment: caspase 3,7 activation assay in AML cell lines; type: cell-based; details: 24 h
Experimental: A ten-fold, in MOLM-13 and M0-91, and two-fold, in Kasumi-1 and SKNO-1, increase in caspase-3,7 activation was observed as early as 24 h. Essentially no live cells were detected for the M0-91 cell line after 48 h of HSP90 inhibitor treatment. In the most sensitive cells, MOLM-13 and M0-91, apoptosis was associated with downregulation of the anti-apoptotic molecule Bcl-xL.
Cells were plated and treated as described in the growth inhibition assay section. Following a 24 h or 48 h exposure of cells to Hsp90 inhibitors, 100 μL buffer containing 10 mM Hepes, pH 7.5, 2 mM EDTA, 0.1% CHAPS, 0.1 mg/mL PMSF, Complete Protease Inhibitor mix (#1697498; Roche), and the caspase substrate Z-DEVD-R110 (#R22120; Molecular Probes) at 25 μM was added to each well. Plates were placed on an orbital shaker to promote cell lysis and reaction. The fluorescence signal of each well was measured in an Analyst GT (Molecular Dev ices) microplate reader (excitation 485 nm; emission at 530 nm). The percentage increase in caspase-3,7 activity was calculated by comparison of the fluorescence reading obtained from treated versus control cells. All experimental data were analyzed using SOFTmax Pro 4.3.1 and plotted using Prism 4.0 (Graphpad Software Inc., San Diego, Calif.).

[2] = PU-H71 tumor concentrations in MDA-MB-468 tumor-bearing mice (PET-predicted, simulated, LC-MS/MS); details: 75 mg/kg 1× week
[3] = [124I]-PU-H71 PET in cancer patients, tumor exposure to PU-H71; type: in vivo, human
Raf-1, Akt [4] = experiment: onco-client protein degradation in MDA-MB-468 cells (Western blot); type: cell-based; details: Homo sapiens, in vitro, 24 h
[5] = test system: breast cancer tumor specimens; experiment: ex vivo sensitivity of breast cancer fresh tissue sections to PU-H71; type: cell-based, human; details: TNBC resistant (PT#14)
From the text: From preliminary analyses we have learned that fresh tissue slicing provides a quick and more efficient ex vivo method for HSP90 inhibition evaluation than primary cell isolation. In addition, it preserves the cancer cells in the endogenous environment of the surrounding tissue. This is important since the interaction between stromal cells and tumor cells is known to play a major role in cancer growth and progression. In this method, the tissue (i.e. lesion) is placed in a plastic mold and embedded in 6% agarose. The agarose-embedded tissue is then mounted on the stage of the Vibratome that is submersed in a chilled reservoir (for tissue preservation) containing MEM with 1% penicillin/streptomycin. The tissue is then sliced using metal blades producing serial sections of the lesion that are 200 μm thick. Each section (minus the surrounding agarose-embedding media) is immediately placed in a 24-well tissue culture plate containing MEM with 1% penicillin/streptomycin. From a 5 mm×5 mm piece of tissue approximately 25 sections are produced. This allows for replicate analyses of tissue sections treated with a minimum of 4 doses of the HSP90 inhibitor and one with vehicle only. Replicates can be assayed by both IHC as well as viability assays (automatic plate reader or cytospin preparation) once tissue section undergoes enzymatic dissociation by brief exposure to dispase. […]

p-AKT, p-STAT5 = experiment: pharmacodynamic study in M0-91 tumors xenografted in mice; type: in vivo
Experimental: We next analyzed the pharmacodynamic effects of HSP90 inhibition in both HEL and M0-91 tumors xenografted in mice. Unlike the cultured cells, the use of the in vivo model allows real-time monitoring of HSP90-dependent pathways inhibition.
Four- to 6-week-old nu/nu athymic female mice were obtained from Taconic Farms. Experiments were carried out under an Institutional Animal Care and Use Committee-approved protocol, and institutional guidelines for the proper and humane use of animals in research were followed. HEL and M0-91 cells were subcutaneously implanted in the right flank of mice using a 20-gauge needle and allowed to grow. […] For this assay, tumors were allowed to reach 6-8 mm in diameter before treatment. […] Tumors were homogenized and proteins analyzed by western blot as described above.

MDA-MB-468 tumors = experiment: efficacy study in MDA-MB-468 xenografted tumors; type: in vivo, mice; details: 75 mg/kg, 1× week
Experimental: Mice (n=5) bearing MDA-MB-468 tumors reaching a volume of 100-150 mm^3 were treated i.p. (i.p.) using different doses and schedules, as indicated. Tumor volume was determined by measurement with Vernier calipers, and tumor volume was calculated as the product of its length×width^2×0.4. Tumor volume was expressed on indicated days as the median tumor volume ±SD indicated for groups of mice. Percent (%) tumor growth inhibition values were measured on the final day of study for drug-treated compared with vehicle treated mice and are calculated as 100×{1−[(TreatedFinal day−TreatedDay 1)/(ControlFinal day−ControlDay 1)]}. Tumor regression values were determined by calculating the ratio of median tumor volumes at the time when treatment was initiated to median tumor volume on the final day of study for a given treatment group. Percent (%) tumor regression is 100×[1−(TreatedFinal day/TreatedDay 1)].

[6] = mouse, in vivo
MDA-MB-468 cells = experiment: apoptosis of MDA-MB-468 cells (Ethidium Bromide/Acridine Orange); type: cell-based, human; details: 48 h
From the text: As noted in FIG. 40B, several tumors are more sensitive to HSP90 inhibition than predicted from the preliminary data generated on cell lines.

## CC(C)NCCCn1c(Sc2cc3c(cc2I)OCO3)nc2c(N)ncnc21 [PU-H71]
Raf-1, Akt [1]; read-out: EC50 Akt, tumor concentration by PET vs pharmacodynamic effect
  EC50: 90 ± 80 nM
Raf-1, Akt [1]; read-out: EC50 Raf-1, tumor concentration by PET vs pharmacodynamic effect
  EC50: 240 ± 30 nM
359 kinases
  kinase hits: Only SNARK (NUAK family SNF1-like kinase 2)
In vivo; in vivo, 5 mg/kg
  concentration at 24 h: 430 nM
In vivo; tumor, 5 mg/kg
  concentration at 24 h: 370 nM
In vivo; tumor, 25 mg/kg
  concentration at 24 h: 1830 nM
In vivo; tumor, 50 mg/kg
  concentration at 24 h: 3670 nM
In vivo; tumor, 75 mg/kg
  concentration at 48 h: 3500 ± 270 nM
  concentration at 96 h: 1290 ± 290 nM
  concentration at 120 h: 690 ± 250 nM
HSP90; K562 and other established t(9;22)+ CML cell lines
  fraction of total cellular HSP90 bound: 10.3-23%
HSP90; MDA-MB-468 cells
  fraction of total cellular HSP90 bound: approximately 30%
caspase-3,7; Kasumi-1 and SKNO-1
  increase in caspase-3,7 activation: two-fold
caspase-3,7; MOLM-13 and M0-91
  increase in caspase-3,7 activation: ten-fold
[2]; 24 h after last dose
  actual tumor concentration by LC-MS/MS: 5.53±0.26
[2]; 96 h after last dose
  actual tumor concentration by LC-MS/MS: 3.09±1.40
[3]; 10 mg/m^2 once a week for two weeks
  tumor AUC0-336h: 54 μM-h
[3]; left lung, 80 mg/m2 2× week
  tumor exposure: above 760 uM-h
Raf-1, Akt [4]; read-out: EC50 Akt, onco-client protein degradation
  EC50: 150 ± 20 nM
Raf-1, Akt [4]; read-out: EC50 Raf-1, onco-client protein degradation
  EC50: 130 ± 20 nM
[5]
  apoptosis: no apoptosis noted at any of the tested concentrations
p-AKT, p-STAT5
  duration of apoptosis after one dose: 96 h
MDA-MB-468 tumors
  anti-tumor effect: significant tumor growth inhibition
[6]
  AUC tumor relative to AUC blood: 15 fold
  area under the blood time-activity concentration curve: 0.78 % ID/g-h
  area under the tumor time-activity concentration curve: 11.4 % ID/g-h
MDA-MB-468 cells; 0.5 μM
  cells undergoing apoptosis: about 50%
MDA-MB-468 cells; about 5 μM
  cells undergoing apoptosis: about 100%

Reference: patent US9555137B2, “Uses of labeled HSP90 inhibitors” (Sloan-Kettering Institute for Cancer Research, priority 2011, dated 2017)
